Results as given in patent publication US20210106703A1, “RADIOIMMUNOCONJUGATES IN COMBINATION WITH OTHER DRUGS AS TREATMENT AGAINST NHL” (Nordic Nanovector ASA, priority 2017, published 2021).
Where two headings read alike, the source gives them in different places.

Experiments:
Assay type in all cases: cell-based, human
U-2932 cells = experiment: Real Time Glo viability screen and validation, Betalutin with PARP or cell cycle kinase inhibitors (Examples 4, 7); conditions: U-2932, validation screen, 0-1280 nM
SUDHL-6 cells = experiment: Alamar Blue cytotoxicity study; conditions: for Combination Index (Chou-Talalay): 120 h
Method: (§1) Cells were treated with either Humalutin, venetoclax or a combination of both and seeded into 96 well-plates. At each time point after treatment, cells were incubated with Alamar Blue (Thermo Fisher, DALL1100) for 4 hours and fluorescence measurements were performed using a multiplate reader Fluoroskan ascent FL to assess cell proliferation and viability. All experiments were done in duplicates using 2 samples in each experiment. Data were normalized to the untreated controls.
(§2) Cells were incubated with 0.25, 0.5, 1, 2.5 or 5 μg/ml of Humalutin in cell culture flasks and incubated at 37° C./5% CO2. After 18-20 hours cells were washed and resuspended in fresh medium. Cell bound activity after washing was measured using a calibrated gamma detector (Cobra II auto-gamma detector, Packard Instrument Company, Meriden, Conn., USA). Cell concentration and viability were also measured after washing using Guava ViaCount Cell Dispersal Reagent for Flow Cytometry (Merck GaA, Darmstadt, Germany) and measured in a Guava EasyCyte 12HT (Merck KGaA, Darmstadt, Germany) to determine how well the cells survived the incubation. Cells were seeded in 96 well plates. Alamar blue viability measurements were performed 120 h after seeding.
Cells were incubated with either 0 (control), 0.5 μg/ml or 1 μg/ml Humalutin for 18 to 20 hours. Cells were then washed and resuspended in fresh medium. Cell bound activity after washing was measured using a calibrated gamma detector (Cobra II auto-gamma detector, Packard Instrument Company, Meriden, Conn., USA). Cell concentration and viability were also measured after washing using Guava ViaCount Cell Dispersal Reagent for Flow Cytometry (Merck GaA, Darmstadt, Germany) and measured in a Guava EasyCyte 12HT (Merck KGaA, Darmstadt, Germany) to determine how well the cells survived the incubation. […] Cytotoxic effect was measured using Alamar blue cell viability assay.
(§3) The Chou-Talalay model was used for synergy calculations using the Compusyn software. R (goodness of fit) was calculated for the individual treatments and should be over 0.90 in in vitro culture experiments in order to use the calculated combination index (CI) with confidence. The CI is an indication of synergy: 0-0.9 is considered synergy. Synergism grading was used as described in Table 13, WO2006004917A2.

Granta 519 cells = experiment: Alamar Blue cytotoxicity study; conditions: Homo sapiens; Granta 519, 72 h incubation after seeding; read-out: IC50
Method: as §1, with “olaparib” for “venetoclax”
as §2, with “viability was” for “viability were”, “plates.” for “plates. Alamar blue viability measurements were performed 120 h after seeding.”
(§4) Cells were seeded in 96 well plates pre-coated with from 1 to 100 μM olaparib in 0.2 ml medium and incubated at 37° C./5% CO2 for 72 hours before the cytotoxic effect was measured using alamar blue cell viability assay.
(§5) Cells were incubated with either 0, 0.5 μg/ml or 1 μg/ml Humalutin and the same procedure as described before for treatment with humalutin alone and olaparib alone was followed. Concentrations of olaparib used were between 1 and 100 μM.
as §3, with “(CI).” for “(CI) with confidence.”, “Synergysm” for “Synergism”, “in” for “in Table 13,”, “WO2006004917A2. […]” for “WO2006004917A2.”
as §2

DOHH2 cells = experiment: Alamar Blue cytotoxicity study; conditions: Homo sapiens, DOHH-2; DOHH2, 72 h incubation after seeding; read-out: IC50
Method: as §1, with “olaparib” for “venetoclax”
as §2, with “viability was” for “viability were”, “plates.” for “plates. Alamar blue viability measurements were performed 120 h after seeding.”
as §4, §5
as §3, with “(CI).” for “(CI) with confidence.”, “Synergysm” for “Synergism”, “in” for “in Table 13,”, “WO2006004917A2. […]” for “WO2006004917A2.”
as §2

U2932 cells = experiment: Alamar Blue cytotoxicity study; conditions: for IC50: Homo sapiens; for Combination Index (Chou-Talalay): 120 h
Method: as §1, with “olaparib” for “venetoclax”
as §2, with “viability was” for “viability were”, “plates.” for “plates. Alamar blue viability measurements were performed 120 h after seeding.”
as §4, §5
as §3, with “(CI).” for “(CI) with confidence.”, “Synergysm” for “Synergism”, “in” for “in Table 13,”, “WO2006004917A2. […]” for “WO2006004917A2.”
as §2
Cells were incubated with either 0 (control), 0.5 μg/ml or 1 μg/ml Humalutin for 18 to 20 hours. Cells were then washed and resuspended in fresh medium.

SMILES: Nc1nc(Nc2ccc(S(N)(=O)=O)cc2)nn1C(=O)c1c(F)cccc1F [JNJ-7706621]
- Effect of monotreatment on proliferation (U-2932 cells): not evident at concentrations below 160 nM

SMILES: CC1(C)CCC(CN2CCN(c3ccc(C(=O)NS(=O)(=O)c4ccc(NCC5CCOCC5)c([N+](=O)[O-])c4)c(Oc4cnc5[nH]ccc5c4)c3)CC2)=C(c2ccc(Cl)cc2)C1 [venetoclax]
- IC50 (SUDHL-6 cells; Homo sapiens, SU-DHL-6, read-out: IC50 at 120 h, SUDHL-6, 120 h incubation after seeding): 1.16 µM
- Combination Index (Chou-Talalay) (SUDHL-6 cells; SUDHL-6, venetoclax 0.25 + Humalutin 0.5 μg/ml): 0.63
- Combination Index (Chou-Talalay) (SUDHL-6 cells; SUDHL-6, venetoclax 0.25 + Humalutin 1 μg/ml): 0.82
- Combination Index (Chou-Talalay) (SUDHL-6 cells; SUDHL-6, venetoclax 0.5 + Humalutin 0.5 μg/ml): 0.14
- Combination Index (Chou-Talalay) (SUDHL-6 cells; SUDHL-6, venetoclax 0.5 + Humalutin 1 μg/ml): 0.28
- Combination Index (Chou-Talalay) (SUDHL-6 cells; SUDHL-6, venetoclax 1 + Humalutin 0.5 μg/ml): 0.71
- Combination Index (Chou-Talalay) (SUDHL-6 cells; SUDHL-6, venetoclax 1 + Humalutin 1 μg/ml): 0.41
- Combination Index (Chou-Talalay) (SUDHL-6 cells; SUDHL-6, venetoclax 2.5 + Humalutin 0.5 μg/ml): 0.47
- Combination Index (Chou-Talalay) (SUDHL-6 cells; SUDHL-6, venetoclax 2.5 + Humalutin 1 μg/ml): 0.41
- IC50 (Granta 519 cells): 0.331 µM
- IC50 (DOHH2 cells): 2.98 µM
- IC50 (U2932 cells; read-out: IC50 at 120 h, U2932, 120 h incubation after seeding): 1.14 µM
- IC50 (U2932 cells; U2932, 72 h incubation after seeding, read-out: IC50): 4.15 µM
- Combination Index (Chou-Talalay) (U2932 cells; U2932, drug 10 μM + Humalutin 0.5 μg/ml): 0.50
- Combination Index (Chou-Talalay) (U2932 cells; U2932, drug 10 μM + Humalutin 1 μg/ml): 0.09
- Combination Index (Chou-Talalay) (U2932 cells; U2932, drug 40 μM + Humalutin 0.5 μg/ml): 0.91
- Combination Index (Chou-Talalay) (U2932 cells; U2932, drug 40 μM + Humalutin 1 μg/ml): 0.23
- Combination Index (Chou-Talalay) (U2932 cells; U2932, drug 80 μM + Humalutin 0.5 μg/ml): 0.54
- Combination Index (Chou-Talalay) (U2932 cells; U2932, drug 80 μM + Humalutin 1 μg/ml): 0.12
- Combination Index (Chou-Talalay) (U2932 cells; U2932, drug 100 μM + Humalutin 0.5 μg/ml): 0.49
- Combination Index (Chou-Talalay) (U2932 cells; U2932, drug 100 μM + Humalutin 1 μg/ml): 0.07
- Combination Index (Chou-Talalay) (U2932 cells; U2932, venetoclax 0.25 + Humalutin 0.5 μg/ml): 0.02
- Combination Index (Chou-Talalay) (U2932 cells; U2932, venetoclax 0.25 + Humalutin 1 μg/ml): 0.12
- Combination Index (Chou-Talalay) (U2932 cells; U2932, venetoclax 0.5 + Humalutin 0.5 μg/ml): 0.01
- Combination Index (Chou-Talalay) (U2932 cells; U2932, venetoclax 0.5 + Humalutin 1 μg/ml): 0.10
- Combination Index (Chou-Talalay) (U2932 cells; U2932, venetoclax 1 + Humalutin 0.5 μg/ml): 0.03
- Combination Index (Chou-Talalay) (U2932 cells; U2932, venetoclax 1 + Humalutin 1 μg/ml): 0.08
- Combination Index (Chou-Talalay) (U2932 cells; U2932, venetoclax 2.5 + Humalutin 0.5 μg/ml): 0.03
- Combination Index (Chou-Talalay) (U2932 cells; U2932, venetoclax 2.5 + Humalutin 1 μg/ml): 0.06
